# Reference: patent US12304912B2, “Fused bicyclic RAF inhibitors and methods for use thereof” (Jazz Pharmaceuticals Ireland Limited, priority 2020, dated 2025)
# Counter-ions that a name gives are not always drawn.
# Assay: FeSSIF solubility assay
# Format: physicochemical
# Details: fed state simulated intestinal fluid (FeSSIF), thermodynamic from solid, pH 5 acetate buffer, 37° C., read-out: FESSIF Sol
# In short: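 FeSSIF (pH 5 acetate buffer, 1 mL) was added to 1.0 mg solid compound and shaken at 650 rpm and 37 °C for 24 h. After filtration, dissolved compound was quantified by LC-UV against a 250 μM calibration standard.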
row,SMILES,solubility thermodynamic at 24 h [µg/mL]
1,"Cc1c[nH]c(-c2cc(Oc3ccc4c(c3)CC(c3nc(-c5ccccc5)c[nH]3)CO4)ccn2)n1 (stereo not drawn) [Compound 143, 2-(4-methyl-1H-imidazol-2-yl)-4-[3-(4-phenyl-1H-imidazol-2-yl)chroman-6-yl]oxy-pyridine]",44.7
2,O=C(Cn1ccnc1)Nc1cc(Oc2ccc3c(c2)CC(c2nc(-c4ccccc4)c[nH]2)CO3)ccn1 (stereo not drawn) [Compound 144],318
3,"CN1CCN(CC(=O)Nc2cc(Oc3ccc4c(c3)CC(c3nc(-c5ccccc5)c[nH]3)CO4)ccn2)CC1 (stereo not drawn) [Compound 146, 2-(4-methylpiperazin-1-yl)-N-[4-[3-(4-phenyl-1H-imidazol-2-yl)chroman-6-yl]oxy-2-pyridyl]acetamide]",404
4,"CN1CCC(C(=O)Nc2cc(Oc3ccc4c(c3)CC(c3nc(-c5ccccc5)c[nH]3)CO4)ccn2)CC1 (stereo not drawn) [Compound 147, 1-methyl-N-[4-[3-(4-phenyl-1H-imidazol-2-yl)chroman-6-yl]oxy-2-pyridyl]piperidine-4-carboxamide]",528
5,"O=C(Nc1nccc(Oc2ccc3c(c2)CC(c2nc(-c4ccccc4)c[nH]2)CO3)n1)C1CC1 (stereo not drawn) [Compound 148, N-[4-[3-(4-phenyl-1H-imidazol-2-yl)chroman-6-yl]oxypyrimidin-2-yl]cyclopropanecarboxamide]",104
6,O=C(CN1CCOCC1)Nc1cc(Oc2ccc3c(c2)CC(c2nc(-c4ccccc4)c[nH]2)CO3)ccn1 (stereo not drawn) [Compound 149],200
7,"O=C(Nc1cc(Oc2ccc3c(c2)CC(c2nc(-c4ccccc4)c[nH]2)CO3)ncn1)C1CC1 (stereo not drawn) [Compound 151, N-[6-[3-(4-phenyl-1H-imidazol-2-yl)chroman-6-yl]oxypyrimidin-4-yl]cyclopropanecarboxamide]",86.6
8,O=C(CN1CCCC1)Nc1cc(Oc2ccc3c(c2)CC(c2nc(-c4ccccc4)c[nH]2)CO3)ccn1 (stereo not drawn) [Compound 152],997
9,O=C(CN1CC(O)C1)Nc1cc(Oc2ccc3c(c2)CC(c2nc(-c4ccccc4)c[nH]2)CO3)ccn1 (stereo not drawn) [Compound 153],336
10,O=C(Cn1cncn1)Nc1cc(Oc2ccc3c(c2)CC(c2nc(-c4ccccc4)c[nH]2)CO3)ccn1 (stereo not drawn) [Compound 154],171
11,"O=C(Nc1cc(Oc2ccc3c(c2)CC(c2nc(-c4ccc(F)cc4)c[nH]2)CO3)ccn1)C1CC1 (stereo not drawn) [Compound 155, N-[4-[3-[4-(4-fluorophenyl)-1H-imidazol-2-yl]chroman-6-yl]oxy-2-pyridyl]cyclopropanecarboxamide]",124
12,"CC(=O)Nc1cc(Oc2ccc3c(c2)CC(c2nc(-c4ccccc4)c[nH]2)CO3)ccn1 (stereo not drawn) [Compound 156, N-[4-[3-(4-phenyl-1H-imidazol-2-yl)chroman-6-yl]oxy-2-pyridyl]acetamide]",296
13,CC1CC1C(=O)Nc1cc(Oc2ccc3c(c2)CC(c2nc(-c4ccccc4)c[nH]2)CO3)ccn1 (stereo not drawn) [Compound 157],116
14,O=C1CCc2c(Oc3ccc4c(c3)CN(c3nc5cc(C(F)(F)F)ccc5[nH]3)CC4)ccnc2N1 [Compound 160],3

# Assay: Solubility (Sol), medium not stated
# Format: physicochemical
# Details: cells not marked (FESSIF)
row,SMILES,Sol [mg/L]
1,O=C1CCc2c(Oc3ccc4c(c3)CC(c3nc5cc(C(F)(F)F)ncc5[nH]3)CO4)ccnc2N1 (racemic) [Compound 32],<1.2
2,"O=C1CCc2c(Oc3ccc4c(c3)CC(c3nc(-c5cccc(C(F)(F)F)c5)c[nH]3)CO4)ccnc2N1 (stereo not drawn) [Compound 12, 5-[3-[4-[3-(trifluoromethyl)phenyl]-1H-imidazol-2-yl]chroman-6-yl]oxy-3,4-dihydro-1H-1,8-naphthyridin-2-one]",<1.3
3,"O=C1CCc2c(Oc3ccc4c(c3)CC(c3nc5cc(C(F)(F)F)ccc5[nH]3)CO4)ccnc2N1 (stereo not drawn) [Compound 22, 5-[3-[6-(trifluoromethyl)-1H-benzimidazol-2-yl]chroman-6-yl]oxy-3,4-dihydro-1H-1,8-naphthyridin-2-one]",<1.2
4,O=C1CCc2c(Oc3ccc4c(c3)CC(c3nc5cc(F)c(F)cc5[nH]3)CO4)ccnc2N1 (stereo not drawn) [Compound 23],<1.1
5,N#Cc1ccc2[nH]c(C3COc4ccc(Oc5ccnc6c5CCC(=O)N6)cc4C3)nc2c1 (stereo not drawn) [Compound 24],<1.1
6,CN(C)c1ccc2[nH]c(C3COc4ccc(Oc5ccnc6c5CCC(=O)N6)cc4C3)nc2c1 (stereo not drawn) [Compound 26],<1.1
7,Cc1cc2nc(C3COc4ccc(Oc5ccnc6c5CCC(=O)N6)cc4C3)[nH]c2cc1C (stereo not drawn) [Compound 29],<1.1
8,"O=C1CCc2c(Oc3ccc4c(c3)CN(c3nc(-c5ccccc5)n[nH]3)CC4)ccnc2N1 [Compound 44, 5-[[2-(3-phenyl-1H-1,2,4-triazol-5-yl)-3,4-dihydro-1H-isoquinolin-7-yl]oxy]-3,4-dihydro-1H-1,8-naphthyridin-2-one hydrochloride]",<1.2
9,"O=C(Nc1cc(Oc2ccc3c(c2)CC(c2nc(-c4ccccc4)c[nH]2)CO3)ccn1)C1CC1 (stereo not drawn) [Compound 45, N-[4-[3-(4-phenyl-1H-imidazol-2-yl)chroman-6-yl]oxy-2-pyridyl]cyclopropanecarboxamide]",<1.2
10,O=C1CCc2c(Oc3ccc4c(c3)CN(C(=O)Nc3cccc(C(F)(F)F)c3)CC4)ccnc2N1 [Compound 50],<1.2
